In patent publication US6251912A, “Substituted quinazoline derivatives” (American Cyanamid Company, priority 1998, dated 2001):
Values after ≈ are worked out from the molar mass of the structure shown. Like-named read-outs stand apart in the source and are kept apart here.

Key:
MB435 = test: Inhibition of cancer cell growth as measured by cell number, MB435; format: cell-based; conditions: Homo sapiens, read-out: IC50, inhibition of cancer cell growth
Experimental: (§1) After 48 hours exposure to test compounds, cells were fixed with trichloroacetic acid, and stained with Sulforhodamine B. After washing with trichloroacetic acid, bound dye was solubilized in 10 mM Tris base and optical density was determined using plate reader. Under conditions of the assay the optical density is proportional to the number of cells in the well. […] The test procedure is described in details by Philip Skehan et. al, J.Natl. Canc.

A2780S = test: Inhibition of cancer cell growth as measured by cell number, A2780S; format: cell-based; conditions: Homo sapiens, read-out: IC50, inhibition of cancer cell growth
Experimental: as §1

A2780DDP = test: Inhibition of cancer cell growth as measured by cell number, A2780DDP; format: cell-based; conditions: Homo sapiens, read-out: IC50, inhibition of cancer cell growth
Experimental: as §1

MCF7 = test: Inhibition of cancer cell growth as measured by cell number, MCF7; format: cell-based; conditions: Homo sapiens, read-out: IC50, inhibition of cancer cell growth
Experimental: as §1

SW620 = test: Inhibition of cancer cell growth as measured by cell number, SW620; format: cell-based; conditions: Homo sapiens, read-out: IC50, inhibition of cancer cell growth
Experimental: as §1

LOX = test: Inhibition of cancer cell growth as measured by cell number, LOX; format: cell-based; conditions: Homo sapiens, read-out: IC50, inhibition of cancer cell growth
Experimental: as §1

A431 = test: Inhibition of cancer cell growth as measured by cell number, A431; format: cell-based; conditions: Homo sapiens, read-out: IC50, inhibition of cancer cell growth
Experimental: as §1

SKBR3 = test: Inhibition of cancer cell growth as measured by cell number, SKBR3; format: cell-based; conditions: Homo sapiens, read-out: IC50, inhibition of cancer cell growth
Experimental: as §1

[1] = test system: human epidermoid tumors (A431); format: in vivo, BALB/c nu/nu female mice; conditions: for % T/C / Relative Tumor Growth (RTG): days 1 through 10; for inhibition of tumor growth in vivo: in words
Experimental: BALB/c nu/nu female mice (Charles River, Wilmington, Mass.) were used in the in vivo standard pharmacological test procedures. […] A unit of 5×10^6 cells were injected SC into mice. When tumors attained a mass of between 100 and 150 mg, the mice were randomized into treatment groups (day zero). Mice were treated IP or PO once a day either on days 1, 5, and 9 or on days 1 through 10 post staging with doses of either 80, 40 or 20, or 10 mg/kg/dose of the compound to be evaluated in 0.2% Klucel. Control animals received no drug. […] […] The %T/C (Tumor/Control) is determined by dividing the relative tumor growth of the treated group by the relative tumor growth of the placebo group and multiplying by 100.

SMILES | IC50 (MB435; 48 h) | IC50 (A2780S; 48 h) | IC50 (A2780DDP; 48 h) | IC50 (MCF7; MCF7, 48 h) | IC50 (SW620; SW-620, 48 h) | IC50 (LOX; 48 h) | IC50 (A431; A-431, 48 h) | IC50 (SKBR3; SK-BR-3, 48 h) | inhibition of tumor growth in vivo [1] | other results
CC(C)(C)[Si](C)(C)OCC#CC(=O)Nc1ccc2ncnc(Nc3cccc(Br)c3)c2c1 [Example 15, 4-(tert-Butyl-dimethyl-silanyloxy)-but-2-ynoic acid [4-(3-bromo-phenylamino)-quinazolin-6-yl]-amide] | 0.42 µg/mL (≈ 0.821 µM) | 0.02 µg/mL (≈ 0.0391 µM) | 0.05 µg/mL (≈ 0.0978 µM) | 0.45 µg/mL (≈ 0.88 µM) | 0.02 µg/mL (≈ 0.0391 µM) | 0.03 µg/mL (≈ 0.0587 µM) | 0.04 µg/mL (≈ 0.0782 µM) | 0.38 µg/mL (≈ 0.743 µM) | – | –
CCN(CC)CC=CC(=O)Nc1ccc2ncnc(Nc3cccc(Br)c3)c2c1 [Example 67, 4-Diethylamino-but-2-enoic acid [4-(3-bromo-phenylamino)-quinazolin-6-yl]-amide] | – | – | – | – | – | – | – | – | – | IC50 (MB435; MB435, 48 hours exposure): 45 µg/mL (≈ 99 µM); IC50 (A2780S; 48 hours exposure): 22 µg/mL (≈ 48.4 µM); IC50 (A2780DDP; A2780DDP, 48 hours exposure): 43 µg/mL (≈ 94.6 µM); IC50 (MCF7; MCF7, 48 hours exposure): 59 µg/mL (≈ 130 µM); IC50 (SW620; SW-620, SW620, 48 hours exposure): 52 µg/mL (≈ 114 µM); IC50 (LOX; 48 hours exposure): 46 µg/mL (≈ 101 µM); IC50 (A431; A-431, A431, 48 hours exposure): 0.01 µg/mL (≈ 0.022 µM); IC50 (SKBR3; SK-BR-3, SKBR3, 48 hours exposure): < 0.01 µg/mL
CN(C)CC#CC(=O)Nc1ccc2ncnc(Nc3cccc(Br)c3)c2c1 [Example 21, 4-Dimethylamino-but-2-ynoic acid [4-(3-bromo-phenylamino)-quinazolin-6-yl]-amide] | – | – | – | – | – | – | – | – | effective inhibitor of tumor growth in vivo | % T/C ([1]; 10 mg/kg/dose PO, Day 16): 56%; % T/C ([1]; 10 mg/kg/dose PO, Day 21): 42%; % T/C ([1]; 10 mg/kg/dose PO, Day 28): 42%; % T/C ([1]; 20 mg/kg/dose PO, Day 7): 100%; % T/C ([1]; 20 mg/kg/dose PO, Day 16): 82%; % T/C ([1]; 20 mg/kg/dose PO, Day 28): 72%; % T/C ([1]; 40 mg/kg/dose PO, Day 7): 79%; % T/C ([1]; 40 mg/kg/dose PO, Day 16): 84%
CN(C)CC=CC(=O)Nc1ccc2ncnc(Nc3cccc(Br)c3)c2c1 [Example 66, 4-Dimethylamino-but-2-enoic acid [4-(3-bromo-phenylamino)-quinazolin-6-yl]-amide] | 5.4 µg/mL (≈ 12.7 µM) | 3.9 µg/mL (≈ 9.15 µM) | 5.1 µg/mL (≈ 12 µM) | 7.6 µg/mL (≈ 17.8 µM) | 5.1 µg/mL (≈ 12 µM) | 4.9 µg/mL (≈ 11.5 µM) | 0.007 µg/mL (≈ 0.0164 µM) | < 0.01 µg/mL | – | –
CCN(CC)CC#CC(=O)Nc1ccc2ncnc(Nc3cccc(Br)c3)c2c1 [Example 25, 4-Diethylamino-but-2-ynoic acid[4-(3-bromo-phenylamino)-quinazolin-6-yl]-amide] | – | – | – | – | – | – | – | – | effective inhibitor of tumor growth in vivo | % T/C ([1]; 40 PO, Day 7 (TABLE 5)): 71%; Relative Tumor Growth (RTG) ([1]; 40 PO, Day 7, control 2.76 (TABLE 5)): 1.96; % T/C ([1]; 40 PO, Day 14 (TABLE 5)): 33%; Relative Tumor Growth (RTG) ([1]; 40 PO, Day 14, control 7.07 (TABLE 5)): 2.33; % T/C ([1]; 40 PO, Day 21 (TABLE 5)): 40%; Relative Tumor Growth (RTG) ([1]; 40 PO, Day 21, control 11.75 (TABLE 5)): 4.68; % T/C ([1]; 40 PO, Day 28 (TABLE 5)): 52%; Relative Tumor Growth (RTG) ([1]; 40 PO, Day 28, control 17.13 (TABLE 5)): 8.84; S/T (No. Survivors/No. Treated) ([1]; mouse, in vivo, po): 4/5
C=C(CN1CCOCC1)C(=O)Nc1ccc2ncnc(Nc3cccc(Br)c3)c2c1 [Example 63, N-[4-(3-Bromo-phenylamino)-quinazolin-6-yl]-2-morpholin-4-ylmethyl-acrylamide] | 4.5 µg/mL (≈ 9.61 µM) | 0.8 µg/mL (≈ 1.71 µM) | 4 µg/mL (≈ 8.54 µM) | 17 µg/mL (≈ 36.3 µM) | 5.5 µg/mL (≈ 11.7 µM) | 3.9 µg/mL (≈ 8.33 µM) | 0.6 µg/mL (≈ 1.28 µM) | 10 µg/mL (≈ 21.4 µM) | – | –
